We go through 2 compounds from patent US10420758B2, “Indolinyl-sulfonamide inhibitors of tankyrase and methods of use thereof” (The Board of Regents of the University of Texas System, priority 2015, dated 2019).

This assay relates to Dvl2. The assay can be described thus: Ligand-dependent phosphorylation of Dvl2. Type of assay: cell-based, human. The following applies: HeLa cells, FIG. 4E. The text has this: FIGS. 4A-4F show Tnks inhibitors induce telomeric stress in human cells independently of Wnt/β-catenin pathway inhibition. (FIG. 4A) Porcn inhibitors afford a Tnks-independent approach to disrupting Wnt/β-catenin signaling. Chemicals targeting the Wnt acyltransferase Porcn abrogate Wnt palmitoylation which in turn results in loss of activity of the Frizzled (Fzd) family of Wnt receptors. Fzd receptors directly induce activation of the cytoplasmic signaling molecule Dishevelled (Dvl) in a ligand-dependent manner, which in turn results in activation of β-catenin and transcription mediated by the TCF family of DNA binding proteins. IWP-2 and the clinical candidate LGK-974 represent two structurally distinct Porcn inhibitors. (FIG. 4B) Tnks but not Porcn inhibitors induce DNA damage at telomeres. The appearance of co-localized Terf2 and pH2A.X (an indicator of DNA damage at the telomere ends; Telomere Induced Foci or TIFs) was scored using indirect immunofluorescence in Hela cells (expressing wild-type Apc protein). (FIG. 4C) Quantification of results represented in “B”. Cells with >5 TIFs were scored as positive for telomeric damage (left bars). Mean total phosphorylated H2A.X (γ H2A.X) was used to measure general DNA damage responses (right bars). […] Digital droplet-based telomerase extension analysis of genomic DNA isolated from HeLa cells treated for 24 hrs with indicated compounds. […]

The structures appear in SMILES notation.

`Cc1cc(-c2ncc(CC(=O)Nc3ccc(-c4cnccn4)cn3)cc2C)ccn1` [LGK-974]: the “ligand-dependent phosphorylation of Dvl2” value is reported as “block ligand-dependent phosphorylation of Dvl2”.

Regarding `Cc1ccc2nc(NC(=O)CSc3nc4c(c(=O)n3-c3ccccc3)SCC4)sc2c1` [IWP-2], the “ligand-dependent phosphorylation of Dvl2” value is on record as “block ligand-dependent phosphorylation of Dvl2”.
